Drawing on BindingDB's records for doi:10.1124/mol.54.2.322 (Georgetown University, 1998), this text covers Ki for five molecules.

In general, Ki refers to the dissociation constant of the complex between target and ligand, obtained from inhibition or displacement. Read a low Ki as higher affinity.

Experiment [1] addresses Nicotinic acetylcholine receptor (Rattus leucopus, UniProt Q62594).
The target of experiment [2] is Neuronal acetylcholine receptor subunit alpha-3 (Rattus norvegicus, UniProt P04757).
Chain of Neuronal acetylcholine receptor subunit alpha-3 (P04757 whole entry): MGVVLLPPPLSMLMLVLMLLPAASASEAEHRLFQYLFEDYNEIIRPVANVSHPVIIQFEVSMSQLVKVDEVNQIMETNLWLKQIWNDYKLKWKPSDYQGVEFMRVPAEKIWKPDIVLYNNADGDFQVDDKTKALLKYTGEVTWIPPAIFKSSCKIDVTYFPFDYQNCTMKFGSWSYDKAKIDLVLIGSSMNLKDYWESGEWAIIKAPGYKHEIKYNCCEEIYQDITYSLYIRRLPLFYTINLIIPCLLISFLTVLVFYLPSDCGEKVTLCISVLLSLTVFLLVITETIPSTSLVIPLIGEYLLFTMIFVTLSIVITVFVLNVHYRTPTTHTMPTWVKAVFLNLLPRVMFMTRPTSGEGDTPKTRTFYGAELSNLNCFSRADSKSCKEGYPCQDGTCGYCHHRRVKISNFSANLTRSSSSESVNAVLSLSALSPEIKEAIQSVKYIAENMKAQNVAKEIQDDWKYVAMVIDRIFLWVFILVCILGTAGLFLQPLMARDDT

Chain of Nicotinic acetylcholine receptor (Q62594 whole entry): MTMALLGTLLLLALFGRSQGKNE

As for `COc1cc2c3cc1Oc1cc(ccc1O)C[C@H]1c4c(cc(OC)c(O)c4Oc4ccc(cc4)C[C@@H]3N(C)CC2)CC[N+]1(C)C` [CAS_57-94-3], the values for the Ki in experiment [1] and in experiment [2] were 2.24 µM and over 10 µM, respectively. With `C[N+](C)(C)CCOC(N)=O` [(2-Hydroxyethyl)trimethyl ammonium chloride carbamate], in experiment [2], the Ki amounted to 3.84 µM. As to `C[N+](C)(C)CCCCCC[N+](C)(C)C` [Hexamethoniumdibromide], the Ki in experiment [1] and in experiment [2] was over 10 µM throughout. `CO[C@@H]1CC=C2CCN3CCC4=C(CC(=O)OC4)[C@@]23C1` gave a Ki in experiment [2] of over 10 µM. Take `O=c1cccc2n1C[C@H]1CNC[C@H]2C1` [(1S,9R)-7,11-diazatricyclo[7.3.1.0~2,7~]trideca-2,4-dien-6-one]: the inhibition constant Ki in experiment [2] turned out to be 0.195 µM.
